Data: ChEMBL document CHEMBL1131416 (J Med Chem, 1998)
pKi: −log10 of the molar value.

Columns and labels:
[1] = molecular target: T1, D(2) dopamine receptor (Bos taurus, UniProt P20288); experiment: Inhibition of [3H]YM-09151-2 binding to bovine retina membrane Dopamine receptor D2, high affinity site
[2] = molecular target: T1, D(2) dopamine receptor; experiment: Inhibition of [3H]YM-09151-2 binding to bovine retina membrane Dopamine receptor D2, low affinity site
[3] = molecular target: T1, D(2) dopamine receptor; experiment: Tested for binding affinity against Dopamine receptor D2 like from bovine striatum membranes by using [3H]YM-09151-2 radioligand
[4] = molecular target: D(1A) dopamine receptor (Bos taurus, UniProt Q95136); experiment: Binding affinity against Dopamine receptor D1 like from bovine retina membranes measured using [3H]SCH-23390 radioligand
D(1A) dopamine receptor, sequence (Q95136 whole entry): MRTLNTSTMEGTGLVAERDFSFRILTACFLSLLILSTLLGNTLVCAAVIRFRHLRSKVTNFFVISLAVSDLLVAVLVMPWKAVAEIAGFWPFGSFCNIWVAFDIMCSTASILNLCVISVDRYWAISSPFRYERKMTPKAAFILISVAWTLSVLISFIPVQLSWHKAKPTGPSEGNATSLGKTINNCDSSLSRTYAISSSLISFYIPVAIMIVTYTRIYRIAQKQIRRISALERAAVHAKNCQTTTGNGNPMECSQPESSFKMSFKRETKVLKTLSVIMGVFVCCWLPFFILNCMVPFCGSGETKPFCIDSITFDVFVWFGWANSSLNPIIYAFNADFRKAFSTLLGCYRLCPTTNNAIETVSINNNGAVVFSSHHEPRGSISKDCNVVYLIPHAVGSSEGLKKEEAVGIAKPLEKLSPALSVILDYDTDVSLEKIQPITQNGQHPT

T1 sequence (P20288 whole entry): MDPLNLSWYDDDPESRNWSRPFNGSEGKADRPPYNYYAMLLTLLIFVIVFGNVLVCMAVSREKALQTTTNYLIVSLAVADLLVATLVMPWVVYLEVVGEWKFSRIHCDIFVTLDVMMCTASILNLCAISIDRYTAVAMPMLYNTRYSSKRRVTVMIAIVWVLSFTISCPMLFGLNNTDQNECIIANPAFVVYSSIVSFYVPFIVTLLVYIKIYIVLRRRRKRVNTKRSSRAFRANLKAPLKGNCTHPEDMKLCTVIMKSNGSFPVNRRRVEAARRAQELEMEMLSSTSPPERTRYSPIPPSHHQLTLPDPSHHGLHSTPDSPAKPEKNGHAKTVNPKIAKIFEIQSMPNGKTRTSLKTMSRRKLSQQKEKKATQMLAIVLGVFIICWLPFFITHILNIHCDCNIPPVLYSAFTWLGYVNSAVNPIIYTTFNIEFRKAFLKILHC

Row | SMILES | pKi [1] | pKi [2] | pKi [3] | pKi [4]
1 | Cc1cccc(C2CCCNC2)c1C (stereo unspecified) | 7.37 | 4.80 | – | –
2 | CCCN1CCCC(c2cc(C)cc(C)c2)C1 (stereo unspecified) | 7.28 | 5.03 | 5.89 | 4.22
3 | CCCN1CCCC(c2ccc(C)cc2C)C1 (stereo unspecified) | 6.14 | 4.77 | – | 4.00
4 | CCCN1CCCC(c2c(C)cccc2C)C1 (stereo unspecified) | 6.81 | 4.64 | – | 4.01
5 | CCCN1CCCC(c2cc(C)ccc2C)C1 (stereo unspecified) | 6.27 | 4.60 | – | 3.95
6 | CCCN1CCCC(c2cccc(C)c2C)C1 (stereo unspecified) | 7.12 | 5.11 | 5.31 | 4.22
7 | Cc1cc(C)cc(C2CCCNC2)c1 (stereo unspecified) | 6.62 | 4.62 | – | –
8 | Cc1ccc(C2CCCNC2)cc1C (stereo unspecified) | 6.85 | 4.72 | – | –
9 | CCCN1CCCC(c2ccc(C)c(C)c2)C1 (stereo unspecified) | 7.72 | 5.09 | 5.30 | 3.99
10 | NCCc1ccc(O)c(O)c1 [DOPAMINE] | – | – | – | 5.37
11 | CCCN1CCC[C@@H](c2cccc(O)c2)C1 [PRECLAMOL] | 6.28 | 4.92 | 5.68 | –
